# Test results from patent publication US4272507A, “Phenylaminothiophenacetic acids, their synthesis, compositions and use” (priority 1978, dated 1981).
# Where two headings read alike, the source gives them in different places.
# Legend:
# [1] = system: carrageenin edema of the hind paw of rats; assay: Acute antiphlogistic action: carrageenin edema of the hind paw of rats after single oral administration; settings: for ED50: Rattus norvegicus, po, read-out: ED50 (dose which causes a maximum edema inhibition of 50%); for Therapeutic quotient LD50/ED50: carrageenin edema, LD50 7 days oral; for Therapeutic quotient LD50/ED50 / Maximum inhibition of carrageenin edema within 7 hours after oral administration: rats
# Description: (§1) Biol. Med., 111 (1962) 544]}, on chronic inflammatory processes {Cotton pellet test on rats [Winter et al.: J. Pharmacol. exp. Therap., 141 (1963) 369]} and on adjuvant arthritis [based on the method of Perrine et al., Brit. J. Pharmacol., 21 (1963) 127] is determined.
# The influence of the compounds to be tested on carrageenin edema of the hind paw of rats was determined as follows:
# The rats are kept at 24° C.
# The paw volume of each rat is determined (2 to 3 individual measurements in each case) before edema provocation and at hourly intervals for 7 hours after edema provacation. The average percentage paw swelling of each treated group determined at the specified times after the carrageenin injection is related to that of the untreated control group (=100%).
# The maximum percentage edema inhibition serves as a measure of the antiphlogistic action.
# The paw volume is determined plethysmometrically. Measuring principle: the volume of liquid displaced through the paw of the rat is recorded digitally via an electromechanical pressure transducer (Statham P 23 V, 0-200 mm Hg).
# The doses indicated for the compounds tested were administered in a volume of liquid of 20 ml/kg.
# [2] = Chronic antiphlogistic action: cotton pellet test (formation of granulation tissue) in rats; settings: rat, in vivo, po
# Description: as §1
# (§2) Experimental procedure for investigating the influence of the compounds to be tested on the formation of granulation tissue after implantation of cotton in rats (so-called cotton pellet method):
# (§3) 1 cotton pellet (manufacturer: Messrs. Hartmann/Heidenheim; cotton pellets size 2, No. 4865/2) which weighs 13.0±0.5 mg and has been impregnated beforehand with 0.1 ml of a solution of 0.5 mg of penicillin G and 0.8 mg of streptomycin sulfate/1 ml of distilled water is in each case implanted subcutaneously into the shoulder-blade region, on both sides, of male Sprague-Dawley rats (groups of 8 animals each; weight of each animal: 150 to 170 g) under diethyl ether anaesthesia and under sterile conditions. The cut skin is closed by means of clamps.
# (§4) The compounds to be tested (in the form of the sodium salt in aqueous solution) or the corresponding amount (5 ml/kg/day) of tapwater (=control group) are administered orally each day on seven successive days. On the eighth day, the animals are killed and the cotton granules are exposed carefully, that is to say preserving the fibrous tissue capsule, dried (15 hours at 120°) and weighed. By substracting the weight of the cotton pellets, the amount of newly formed granulation tissue is obtained.
# (§5) The percentage reduction in the average granuloma dry weight of a treated group compared with the control group (=100%) serves as a measure of the antiproliferative action of a compound.
# [3] = system: formation of granulation tissue after subcutaneous implantation of cotton; assay: as above; settings: rats; for Therapeutic quotient LD50/ED20: cotton pellet test, LD50 7 days oral; for Inhibition of the formation of granulation tissue after treatment for 7 days: sodium salt
# Description: as §1, §2, §3, §4, §5
# [4] = system: adjuvant arthritis in rats; assay: Antiarthritic action: adjuvant arthritis in rats (Mycobacterium butyricum); settings: for ED25: Rattus norvegicus, po, 120 h, read-out: ED25 (inhibition of adjuvant arthritis of 25%); for therapeutic quotient LD50/ED25: adjuvant arthritis, LD50 7 days oral, rats
# Description: as §1
# The influence of the compounds to be tested on polyarthritis in rats caused by Mycobacterium butyricum (so-called "adjuvant arthritis") was determined using the experimental arrangement hereafter described: based on the method described by NEWBOULD and PERRINE et al. [NEWBOULD, B. B.; Brit. J. Pharmacol. 21, 127 (1963); and PERRINE, J. W. and TAKESUE, E. I.; Arch. int. Pharmacodyn., 174, 192 to 198 (1968)], so-called adjuvant arthritis, which manifests itself chiefly in a severe swelling of the tail (primary lesion) and of the paws (secondary lesion), is caused in rats by intradermal injection of a Mycobact. butyricum suspension in liquid paraffin into the base of the tail. Antiphlogistic agents inhibit this swelling reaction.
# [5] = system: pain reaction provoked in rats by bending an inflamed ankle (AgNO3 arthritis); assay: animal or person; type: in vivo; settings: for Therapeutic quotient LD50/ED50 / therapeutic quotient LD50/ED25: AgNO3 arthritis pain, LD50 7 days oral; for Therapeutic quotient LD50/ED50 / therapeutic quotient LD50/ED25 / ED50 / Inhibition of the pain reaction: rats; for ED25 / ED50: Rattus norvegicus, po; for ED25: read-out: ED25 (dose which completely suppresses the pain reaction in 25% of the animals); for ED50: perorally, at the time of maximum action, read-out: ED50 (dose which completely suppresses the pain reaction in 50% of the animals)
# Description: Based on the method of HOFFMEISTER et al. [Arzneim. Forsch., 24, (1974) 600], 0.2 ml of a 1% strength silver nitrate solution is injected into the ankle joint (inside) of the right hind paw of female Sprague-Dawley rats (each animal weighing about 160 to 180 g) under ether anaesthesia. The animals are kept at 24° C. and are fed Altromin®R and water ad libitum. After the AgNO3 injection, almost all the animals (90 to 95%) can be made to cry out by moderate bending of the ankle joint. All the animals reacting positively are collected into groups of 10 animals. The compounds to be tested are administered orally in a volume of liquid of 10 ml/kg immediately after administration of the AgNO3; the untreated control animals receive the corresponding amount of tapwater.
# Over a period of 4 hours after administration of the substance, the number of animals reacting is determined at half hourly intervals.
# The maximum percentage of the protected animals over a period of 4 hours after administration of the substance [relative to the number of animals in the control group reacting (=100%)] serves as a measure of the analgesic action.
# [6] = system: yeast-induced fever in rats; assay: Antipyretic action: yeast-induced fever in rats; type: in vivo, rats (female Sprague-Dawley); settings: for ED (1.5 degC): Rattus norvegicus, po, read-out: ED1.5 (dose which causes a maximum reduction in yeast-induced fever of 1.5° C.)
# Description: The antipyretic action is determined by the influence of the compounds to be tested on yeast-induced fever in rats.
# Hyperthermia is produced in female Sprague-Dawley rats (in groups of 5 animals; weight of each animal: 160 to 180 g) by subcutaneous injection (neck) of 10 ml/kg of a 20 percent strength aqueous brewer's yeast suspension (brewer's yeast "Heliosan"/Hefereformwerk Radolfzell). 24 hours after the yeast injection, the compounds to be tested are administered orally to the animals in a volume of liquid of 5 ml/kg, and a control group receives the corresponding amount of tapwater. The feed (Altromin®R, water ad libitum) was withdrawn from the rats 18 hours beforehand. The rats are kept at about 23° C.
# The body temperature is recorded 1 hour before administration of the substance and at hourly intervals after administration of the substance.
# […] The body temperature is measured with a temperature probe (Tastomed H, Braun electronic).
# in vivo = settings: rat, po
# [7] = versus phenylbutazone; cited from earlier work
# [8] = versus phenylbutazone; cited from earlier work; remark: listed apart in the source
SMILES,ED50 [1] [mg/kg],Therapeutic quotient LD50/ED50 [1],Maximum inhibition of carrageenin edema within 7 hours after oral administration ([1]; single oral dose 1.0 mg/kg) [%],Maximum inhibition of carrageenin edema within 7 hours after oral administration ([1]; single oral dose 3.0 mg/kg) [%],Therapeutic quotient LD50/ED20 [3],Inhibition of the formation of granulation tissue after treatment for 7 days ([3]; 7 x 0.1 mg/kg/day orally) [%],Inhibition of the formation of granulation tissue after treatment for 7 days ([3]; 7 x 0.3 mg/kg/day orally) [%],Inhibition of the formation of granulation tissue after treatment for 7 days ([3]; 7 x 1.0 mg/kg/day orally) [%],Inhibition of the formation of granulation tissue after treatment for 7 days ([3]; 7 x 3.0 mg/kg/day orally) [%],ED25 [4] [mg/kg/day],therapeutic quotient LD50/ED25 [4],Therapeutic quotient LD50/ED50 [5],therapeutic quotient LD50/ED25 [5],ED25 [5] [mg/kg],ED50 [5] [mg/kg],Inhibition of the pain reaction ([5]; single oral dose 1 mg/kg) [%],Inhibition of the pain reaction ([5]; single oral dose 3 mg/kg) [%],"Maximum reduction in yeast-induced fever over a period of 7 hours ([6]; rats, single oral dose 1 mg/kg) [°C]",LD50 at 168 h (in vivo) [mg/kg],also measured
"O=C(O)Cc1cscc1Nc1c(Cl)cccc1Cl [Compound 3, 4-(2,6-dichloroanilino)-3-thiophenacetic acid]",1.6,6.9,46,56,~ 11,6,15,14,22,0.2,55,3.67,11,1,3,26,50,1.7,11,"Maximum inhibition of carrageenin edema within 7 hours after oral administration ([1]; single oral dose 0.3 mg/kg): 29%; mortality at 168 h ([2]; 6 mg/kg/day): 0%; Inhibition of the formation of granulation tissue after treatment for 7 days ([3]; 7 x 5.0 mg/kg/day orally): 22%; Inhibition of the formation of granulation tissue after treatment for 7 days ([3]; 7 x 6.0 mg/kg/day orally): 36%; Inhibition of the pain reaction ([5]; single oral dose 10 mg/kg): 62%; ED (1.5 degC) ([6]; rats, perorally, single dose): 0.4 mg/kg; Maximum reduction in yeast-induced fever over a period of 7 hours ([6]; rats, single oral dose 0.03 mg/kg): 0.4 °C; Maximum reduction in yeast-induced fever over a period of 7 hours ([6]; rats, single oral dose 0.1 mg/kg): 0.8 °C; Maximum reduction in yeast-induced fever over a period of 7 hours ([6]; rats, single oral dose 0.3 mg/kg): 1.4 °C"
"COc1ccc2c(c1)c(CC(=O)O)c(C)n2C(=O)c1ccc(Cl)cc1 [Compound 2, indomethacin, reference compound]",4.6,1.2,29,47,~ 1.8,7,11,16,16,0.18,30.6,0.92,4.58,1.2,6,23,36,0.2,5.5,"Maximum inhibition of carrageenin edema within 7 hours after oral administration ([1]; single oral dose 10.0 mg/kg): 56%; mortality at 168 h ([2]; 5 mg/kg/day): 25%; Inhibition of the formation of granulation tissue after treatment for 7 days ([3]; 7 x 4.0 mg/kg/day orally): 17%; Inhibition of the pain reaction ([5]; single oral dose 6 mg/kg): 50%; ED (1.5 degC) [6]: 5 mg/kg; Maximum reduction in yeast-induced fever over a period of 7 hours ([6]; rats, single oral dose 3 mg/kg): 0.7 °C; Maximum reduction in yeast-induced fever over a period of 7 hours ([6]; rats, single oral dose 6 mg/kg): 1.8 °C"
"Cc1cccc(Nc2cscc2C(=O)O)c1C [2,3-dimethylphenyl compound]",–,–,–,–,–,–,–,–,–,–,–,–,–,–,–,–,–,–,–,antiphlogistic action [7]: comparable to that of phenylbutazone; antipyretic action [8]: superior
